Reference: paper PMC7992156 (ACS Omega, 2021)
Counter-ions that a name gives are not always drawn.

Molecular target: T1, irisin (Homo sapiens, UniProt Q8NAU1)
T1 sequence (Q8NAU1 80-191): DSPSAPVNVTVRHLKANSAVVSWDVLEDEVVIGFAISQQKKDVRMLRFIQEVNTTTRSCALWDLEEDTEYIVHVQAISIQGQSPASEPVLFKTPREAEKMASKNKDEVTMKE
Assay: isothermal titration calorimetry
Assay type: binding

CCN(C)C(=O)Oc1cccc([C@H](C)N(C)C)c1 [RT, rivastigmine tartrate]
Kd: 14.4 µM
